Source: ChEMBL document CHEMBL1201862, “PubChem BioAssay data set” (2004)
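Protocol summary: plate cells (96-well), add compound at 5 concentrations, incubate 48 h, interpolate endpoints linearly. GI50 marks 50% less growth.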 Activity calls are given as the source filed them. Rule as the data show it: active = GI50 up to about 1.1 µM and inactive = higher.

Columns and labels:
Experiment in all cases: inhibition of tumour cell growth, NCI panel, 48 h
[1] = system: MOLT-4
[2] = system: CCRF-CEM
[3] = system: SF-295
[4] = system: NCI-H460
[5] = system: SNB-19
[6] = system: SK-MEL-5
[7] = system: IGROV-1
[8] = system: UACC-62
[9] = system: NCI-H522
[10] = system: UACC-257
[11] = system: SK-MEL-28
[12] = system: CAKI-1
[13] = system: A549
[14] = system: OVCAR-4
[15] = system: NCI-H226
[16] = system: ACHN

## CCN(CC)CCCNC(=O)C1COc2cc(-c3cc(=O)c4ccccc4o3)ccc2O1 (centres undefined)
[1]
  GI50: 33.4 µM (inactive)
[2]
  GI50: 43.8 µM (inactive)
[3]
  GI50: 96.8 µM (inactive)
[4]
  GI50: > 100 µM (inactive)
[5]
  GI50: > 100 µM (inactive)
[6]
  GI50: 19.7 µM (inactive)
[7]
  GI50: 68.1 µM (inactive)
[8]
  GI50: 45.9 µM (inactive)
[9]
  GI50: 33.3 µM (inactive)
[10]
  GI50: 21.6 µM (inactive)
[11]
  GI50: 20.6 µM (inactive)
[12]
  GI50: > 100 µM (inactive)
[13]
  GI50: 44.1 µM (inactive)
[14]
  GI50: 72.6 µM (inactive)
[15]
  GI50: 76 µM (inactive)
[16]
  GI50: 51.4 µM (inactive)

## Cc1ccc([N+](=O)[O-])cc1NC(=O)C(=O)Cc1occc(=O)c1O
[2]
  GI50: > 100 µM (inactive)
[3]
  GI50: > 100 µM (inactive)
[4]
  GI50: > 100 µM (inactive)
[5]
  GI50: > 100 µM (inactive)
[6]
  GI50: > 100 µM (inactive)
[7]
  GI50: > 100 µM (inactive)
[8]
  GI50: > 100 µM (inactive)
[9]
  GI50: > 100 µM (inactive)
[11]
  GI50: > 100 µM (inactive)
[12]
  GI50: > 100 µM (inactive)
[13]
  GI50: > 100 µM (inactive)
[15]
  GI50: > 100 µM (inactive)
[16]
  GI50: > 100 µM (inactive)

## C1=Nc2ccccc2Cn2nncc21
[1]
  GI50: > 100 µM (inactive)
[2]
  GI50: 49.9 µM (inactive)
[4]
  GI50: > 100 µM (inactive)
[5]
  GI50: > 100 µM (inactive)
[6]
  GI50: > 10 µM (inactive)
[7]
  GI50: 67.5 µM (inactive)
[8]
  GI50: 23 µM (inactive)
[9]
  GI50: 32.7 µM (inactive)
[11]
  GI50: 80.7 µM (inactive)
[12]
  GI50: 29.9 µM (inactive)
[13]
  GI50: > 100 µM (inactive)
[14]
  GI50: > 100 µM (inactive)
[15]
  GI50: > 100 µM (inactive)
[16]
  GI50: > 100 µM (inactive)

## CC(C)c1cccc2sc(NC(=O)C(=O)CC(=O)c3ccc(F)cc3)nc12
[2]
  GI50: > 100 µM (inactive)
[3]
  GI50: > 100 µM (inactive)
[4]
  GI50: > 100 µM (inactive)
[5]
  GI50: > 100 µM (inactive)
[6]
  GI50: > 100 µM (inactive)
[7]
  GI50: > 100 µM (inactive)
[8]
  GI50: > 100 µM (inactive)
[9]
  GI50: > 100 µM (inactive)
[10]
  GI50: > 100 µM (inactive)
[11]
  GI50: > 100 µM (inactive)
[12]
  GI50: > 100 µM (inactive)
[13]
  GI50: > 100 µM (inactive)
[14]
  GI50: > 100 µM (inactive)
[15]
  GI50: > 100 µM (inactive)
[16]
  GI50: > 100 µM (inactive)

## CC1=C(C(=O)NCc2ccccc2)C(c2ccc(C3C(C(=O)NCc4ccccc4)=C(C)NC(C)=C3C(=O)NCc3ccccc3)cc2)C(C(=O)NCc2ccccc2)=C(C)N1
[1]
  GI50: 5.75 µM (inactive)
[2]
  GI50: 3.39 µM (inactive)
[3]
  GI50: 17.9 µM (inactive)
[4]
  GI50: 28.6 µM (inactive)
[5]
  GI50: 15.6 µM (inactive)
[6]
  GI50: 16.1 µM (inactive)
[7]
  GI50: 18 µM (inactive)
[8]
  GI50: 7.91 µM (inactive)
[9]
  GI50: 3.41 µM (inactive)
[10]
  GI50: 15 µM (inactive)
[11]
  GI50: 11.5 µM (inactive)
[12]
  GI50: 14 µM (inactive)
[13]
  GI50: 24.3 µM (inactive)
[14]
  GI50: 15.2 µM (inactive)
[15]
  GI50: 17.5 µM (inactive)
[16]
  GI50: 15.6 µM (inactive)

## CC(Oc1ccc(OCC2CCCCC2)cc1)C(=O)N(CCO)CCO (centres undefined)
[1]
  GI50: > 100 µM (inactive)
[2]
  GI50: > 100 µM (inactive)
[3]
  GI50: > 100 µM (inactive)
[4]
  GI50: > 100 µM (inactive)
[5]
  GI50: > 100 µM (inactive)
[6]
  GI50: > 100 µM (inactive)
[7]
  GI50: > 100 µM (inactive)
[8]
  GI50: > 100 µM (inactive)
[9]
  GI50: > 100 µM (inactive)
[10]
  GI50: > 100 µM (inactive)
[11]
  GI50: > 100 µM (inactive)
[13]
  GI50: > 100 µM (inactive)
[14]
  GI50: > 100 µM (inactive)
[15]
  GI50: > 100 µM (inactive)
[16]
  GI50: > 100 µM (inactive)

## CCCCC1(C2c3ccccc3Oc3ccccc32)C(=O)N(c2ccccc2)N(c2ccccc2)C1=O
[1]
  GI50: > 10 µM (inactive)
[2]
  GI50: 22.5 µM (inactive)
[3]
  GI50: > 92.7 µM (inactive)
[4]
  GI50: 47.8 µM (inactive)
[5]
  GI50: 82 µM (inactive)
[6]
  GI50: 34.3 µM (inactive)
[7]
  GI50: > 72.3 µM (inactive)
[8]
  GI50: > 89.3 µM (inactive)
[9]
  GI50: 3.79 µM (inactive)
[10]
  GI50: 29.4 µM (inactive)
[11]
  GI50: > 100 µM (inactive)
[12]
  GI50: 11.6 µM (inactive)
[13]
  GI50: 39.1 µM (inactive)
[14]
  GI50: 60.1 µM (inactive)
[15]
  GI50: > 80.9 µM (inactive)

## NCCCNCCSP(=O)(O)O [AMIFOSTINE]
[1]
  GI50: 685 µM (inactive)
[2]
  GI50: 512 µM (inactive)
[3]
  GI50: > 750 µM (inactive)
[4]
  GI50: > 750 µM (inactive)
[5]
  GI50: > 750 µM (inactive)
[6]
  GI50: > 750 µM (inactive)
[7]
  GI50: > 750 µM (inactive)
[8]
  GI50: > 710 µM (inactive)
[9]
  GI50: 389 µM (inactive)
[10]
  GI50: > 750 µM (inactive)
[11]
  GI50: > 750 µM (inactive)
[12]
  GI50: > 678 µM (inactive)
[13]
  GI50: > 519 µM (inactive)
[14]
  GI50: > 635 µM (inactive)
[15]
  GI50: > 703 µM (inactive)

## Cn1c(/C=C/CO)c(CO)c2c1C(=O)C=C(N1CC1)C2=O [APAZIQUONE]
[1]
  GI50: 0.299 µM (active)
[2]
  GI50: 0.184 µM (active)
[3]
  GI50: < 0.01 µM (active)
[4]
  GI50: < 0.01 µM (active)
[5]
  GI50: < 0.01 µM (active)
[6]
  GI50: < 0.01 µM (active)
[7]
  GI50: 0.0244 µM (active)
[8]
  GI50: < 0.01 µM (active)
[9]
  GI50: 0.0102 µM (active)
[10]
  GI50: < 0.01 µM (active)
[11]
  GI50: 0.0198 µM (active)
[12]
  GI50: < 0.01 µM (active)
[13]
  GI50: < 0.01 µM (active)
[14]
  GI50: 0.0516 µM (active)
[15]
  GI50: 0.0185 µM (active)
